Experimental findings from PubChem BioAssay AID1259407 (Chemical Carcinogenesis Research Information System (CCRIS), 2018) are described below.

Calls of active or inactive are those of the source. No rule for the calls is given here.

The subject of the series is CCRIS mutagenicity, Ames/micronucleus/aberration tests. In words: CCRIS mutagenicity studies.
Setting [1] is: Test System: AMES SALMONELLA TYPHIMURIUM, Strain/Indicator: TA98, Metabolic Activation: NONE, Method: PREINCUBATION
Setting [2] is: Test System: AMES SALMONELLA TYPHIMURIUM, Strain/Indicator: TA100, Metabolic Activation: NONE, Method: PREINCUBATION
[3] abbreviates: Test System: AMES SALMONELLA TYPHIMURIUM, Strain/Indicator: TA98, Metabolic Activation: NONE, Method: STANDARD PLATE.
[4] abbreviates: Test System: AMES SALMONELLA TYPHIMURIUM, Strain/Indicator: TA100, Metabolic Activation: NONE, Method: STANDARD PLATE.
The mark [5] stands for this setting: Test System: AMES SALMONELLA TYPHIMURIUM, Strain/Indicator: TA1535, Metabolic Activation: NONE, Method: STANDARD PLATE.
[6] abbreviates: Test System: AMES SALMONELLA TYPHIMURIUM, Strain/Indicator: TA1537, Metabolic Activation: NONE, Method: STANDARD PLATE.

On to `Cc1cc2nc3c(=O)[nH]c(=O)nc-3n(C[C@H](O)[C@H](O)[C@H](O)CO)c2cc1C`, for which the mutagenic call by setting is: (End Point: IN VIVO MICRONUCLEUS, Test System: BONE MARROW POLYCHROMATIC ERYTHROCYTES, Species: MOUSE, Strain/Sex: DDY/MALE, Route: IP) “inactive; negative”; (Test System: AMES SALMONELLA TYPHIMURIUM, Strain/Indicator: TA97A, Metabolic Activation: NONE, Method: PREINCUBATION) “inactive; negative”; (Test System: AMES SALMONELLA TYPHIMURIUM, Strain/Indicator: TA97A, Metabolic Activation: RAT, CECAL CELL-FREE EXTRACT, Method: PREINCUBATION) “inactive; negative”; (Test System: AMES SALMONELLA TYPHIMURIUM, Strain/Indicator: TA97A, Metabolic Activation: RAT, LIVER, S9, AROCLOR 1254, Method: PREINCUBATION) “inactive; negative”; under setting [1], “inactive; negative”; (Test System: AMES SALMONELLA TYPHIMURIUM, Strain/Indicator: TA98, Metabolic Activation: RAT, CECAL CELL-FREE EXTRACT, Method: PREINCUBATION) “inactive; negative”. Also, the mutagenic call is “inactive; negative” (Test System: AMES SALMONELLA TYPHIMURIUM, Strain/Indicator: TA98, Metabolic Activation: RAT, LIVER, S9, AROCLOR 1254, Method: PREINCUBATION); “inactive; negative” under setting [2]; “inactive; negative” (Test System: AMES SALMONELLA TYPHIMURIUM, Strain/Indicator: TA100, Metabolic Activation: RAT, CECAL CELL-FREE EXTRACT, Method: PREINCUBATION); “inactive; negative” (Test System: AMES SALMONELLA TYPHIMURIUM, Strain/Indicator: TA100, Metabolic Activation: RAT, LIVER, S9, AROCLOR 1254, Method: PREINCUBATION); “inactive; negative” (Test System: AMES SALMONELLA TYPHIMURIUM, Strain/Indicator: TA102, Metabolic Activation: RAT, LIVER, S9, AROCLOR 1254, Method: PREINCUBATION).

On to `CCc1cccc2c3c([nH]c12)C(C)(CC)OCC3` (stereo not drawn), for which the mutagenic call under setting [3] is “inactive; negative”; the mutagenic call (Test System: AMES SALMONELLA TYPHIMURIUM, Strain/Indicator: TA98, Metabolic Activation: RAT, LIVER, S-9, Method: STANDARD PLATE) was “inactive; negative”; the mutagenic call under setting [4] was “inactive; negative”; the mutagenic call (Test System: AMES SALMONELLA TYPHIMURIUM, Strain/Indicator: TA100, Metabolic Activation: RAT, LIVER, S-9, Method: STANDARD PLATE) was “inactive; negative”; the mutagenic call under setting [5] is “inactive; negative”; the mutagenic call (Test System: AMES SALMONELLA TYPHIMURIUM, Strain/Indicator: TA1535, Metabolic Activation: RAT, LIVER, S-9, Method: STANDARD PLATE) was “inactive; negative”. Further, the mutagenic call runs as follows: under setting [6], “inactive; negative”; (Test System: AMES SALMONELLA TYPHIMURIUM, Strain/Indicator: TA1537, Metabolic Activation: RAT, LIVER, S-9, Method: STANDARD PLATE) “inactive; negative”; (Test System: E. COLI, Strain/Indicator: WP2 UVRA, Metabolic Activation: NONE, Method: STANDARD PLATE) “inactive; negative”; (Test System: E. COLI, Strain/Indicator: WP2 UVRA, Metabolic Activation: RAT, LIVER, S-9, Method: STANDARD PLATE) “inactive; negative”.

In the case of `c1ccc(-c2ccccc2)cc1`, the mutagenic call is “inactive; negative” (Test System: AMES SALMONELLA TYPHIMURIUM, Strain/Indicator: TA97, Metabolic Activation: NONE, Method: STANDARD PLATE); “inactive; negative” (Test System: AMES SALMONELLA TYPHIMURIUM, Strain/Indicator: TA97, Metabolic Activation: RAT, LIVER, S-9, AROCLOR 1254, Method: STANDARD PLATE); “inactive; negative” under setting [1]; “inactive; negative” under setting [3]; “inactive; negative” (Test System: AMES SALMONELLA TYPHIMURIUM, Strain/Indicator: TA98, Metabolic Activation: RAT LIVER S-9, PHENOBARBITAL AND BETA-NAPHTHOFLAVONE, Method: PREINCUBATION); “inactive; negative” (Test System: AMES SALMONELLA TYPHIMURIUM, Strain/Indicator: TA98, Metabolic Activation: RAT, LIVER, S-9, AROCLOR 1254, Method: STANDARD PLATE). Moreover, the mutagenic call by setting is: under setting [2], “inactive; negative”; under setting [4], “inactive; negative”; (Test System: AMES SALMONELLA TYPHIMURIUM, Strain/Indicator: TA100, Metabolic Activation: RAT LIVER S-9, PHENOBARBITAL AND BETA-NAPHTHOFLAVONE, Method: PREINCUBATION) “inactive; negative”; (Test System: AMES SALMONELLA TYPHIMURIUM, Strain/Indicator: TA100, Metabolic Activation: RAT, LIVER, S-9, AROCLOR 1254, Method: STANDARD PLATE) “inactive; negative”; (Test System: AMES SALMONELLA TYPHIMURIUM, Strain/Indicator: TA1535, Metabolic Activation: NONE, Method: PREINCUBATION) “inactive; negative”; under setting [5], “inactive; negative”. The mutagenic call by setting is: (Test System: AMES SALMONELLA TYPHIMURIUM, Strain/Indicator: TA1535, Metabolic Activation: RAT LIVER S-9, PHENOBARBITAL AND BETA-NAPHTHOFLAVONE, Method: PREINCUBATION) “inactive; negative”; (Test System: AMES SALMONELLA TYPHIMURIUM, Strain/Indicator: TA1535, Metabolic Activation: RAT, LIVER, S-9, AROCLOR 1254, Method: STANDARD PLATE) “inactive; negative”; (Test System: AMES SALMONELLA TYPHIMURIUM, Strain/Indicator: TA1537, Metabolic Activation: NONE, Method: PREINCUBATION) “inactive; negative”; under setting [6], “inactive; negative”; (Test System: AMES SALMONELLA TYPHIMURIUM, Strain/Indicator: TA1537, Metabolic Activation: RAT LIVER S-9, PHENOBARBITAL AND BETA-NAPHTHOFLAVONE, Method: PREINCUBATION) “inactive; negative”; (Test System: AMES SALMONELLA TYPHIMURIUM, Strain/Indicator: TA1537, Metabolic Activation: RAT, LIVER, S-9, AROCLOR 1254, Method: STANDARD PLATE) “inactive; negative”. Also, the mutagenic call was “inactive; negative” (Test System: E. COLI, Strain/Indicator: WP2, Metabolic Activation: NONE, Method: STANDARD PLATE); “inactive; negative” (Test System: E. COLI, Strain/Indicator: WP2, Metabolic Activation: RAT, LIVER, S-9, AROCLOR 1254, Method: STANDARD PLATE); “inactive; negative” (Test System: E.COLI, Strain/Indicator: WP2UVRA, Metabolic Activation: NONE, Method: PREINCUBATION); “inactive; negative” (Test System: E.COLI, Strain/Indicator: WP2UVRA, Metabolic Activation: RAT LIVER S-9, PHENOBARBITAL AND BETA-NAPHTHOFLAVONE, Method: PREINCUBATION); “active; positive” (Test System: MOUSE LYMPHOMA, Strain/Indicator: L5178Y (TK+/TK-), Metabolic Activation: NONE, Method: SUSPENSION/PLATE); “active; positive” (Test System: MOUSE LYMPHOMA, Strain/Indicator: L5178Y (TK+/TK-), Metabolic Activation: RAT, LIVER, S-9, AROCLOR 1254, Method: SUSPENSION/PLATE).

Regarding `[Cl-].[Cl-].[Cl-].[Cr+3].c1cnc2c(c1)ccc1cccnc12.c1cnc2c(c1)ccc1cccnc12`, the mutagenic call under setting [4] is “active; positive”.

Turning to `NC(=O)OC[C@H](O)[C@@H](O)[C@H](N)C(=O)N[C@H](C(=O)[O-])[C@H]1O[C@@H](n2cc(C(=O)[O-])c(=O)[nH]c2=O)[C@H](O)[C@@H]1O.[Zn+2]`, the mutagenic call by setting is: under setting [4], “active; positive”; (Test System: AMES SALMONELLA TYPHIMURIUM, Strain/Indicator: TA100, Metabolic Activation: S-9 MIX, Method: STANDARD PLATE) “active; positive”.

For the molecule `[N-]=[N+]=NC[C@H](O)c1ccccc1`, the mutagenic call (Test System: AMES SALMONELLA TYPHIMURIUM, Strain/Indicator: TA100, Metabolic Activation: RAT, LIVER, S-9, PCB, Method: PREINCUBATION) is “active; positive”.

Regarding `CCCCN(CCCC)[N+](=O)[O-]`, the mutagenic call (Test System: E. COLI, Strain/Indicator: WP2 (HCR-), Metabolic Activation: RAT, LIVER, MICROSOMES, PHENOBARBITAL) is “active; positive”.

As to `Cc1cc2c(nc1N)[nH]c1ccccc12`, the mutagenic call is, setting by setting: (Test System: AMES SALMONELLA TYPHIMURIUM, Strain/Indicator: TA98, Metabolic Activation: RAT, LIVER, S-9, AROCLOR 1254, Method: PREINCUBATION) “active; positive”; (Test System: AMES SALMONELLA TYPHIMURIUM, Strain/Indicator: TA100, Metabolic Activation: RAT, LIVER, S-9, AROCLOR 1254, Method: PREINCUBATION) “active; positive”; (Test System: AMES SALMONELLA TYPHIMURIUM, Strain/Indicator: YG1019, Metabolic Activation: RAT LIVER S-9, AROCLOR, Method: PREINCUBATION) “active; positive”.
